Measurements as given in the supplement of paper PMC4862054.

Assays:
Conditions in all cases: incubation time: 72 h
HCC1143 = experiment: drug sensitivity score (DSS), CellTox Green (DSS (AUC-based score)); higher = stronger drug effect (viability inhibition or cytotoxicity); extreme values may be limits of the assay
In short: (§1)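 In 384-well plates, compound was laid out at 5 concentrations in 10-fold steps over a 10,000-fold range specific to each compound, and breast cancer cell lines were seeded on top in 20 µl suspension for a 72 h incubation. CellTox Green fluorescence and then CellTiter-Glo luminescence were read, and each plate was normalised to 0.1 % DMSO and a positive kill control. The drug sensitivity score was calculated from the area under the fitted dose-response curve.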

MDA-MB-468 [1] = experiment: as above
In short: as §1

MDA-MB-436 = experiment: as above
In short: as §1

HDQ-P1 [2] = experiment: as above
In short: as §1

CAL-51 [3] = experiment: as above
In short: as §1

MDA-MB-231 [4] = experiment: as above
In short: as §1

CAL-148 [5] = experiment: as above
In short: as §1

DU-4475 = experiment: as above
In short: as §1

CAL-85-1 [6] = experiment: as above
In short: as §1

MDA-MB-453 [7] = experiment: as above
In short: as §1

BT-549 = experiment: as above
In short: as §1

BT-474 = experiment: as above
In short: as §1

MFM-223 [8] = experiment: as above
In short: as §1

HCC1937 = experiment: as above
In short: as §1

MDA-MB-468 [9] = experiment: normalised viability (% of control), CellTiter-Blue; higher = more viable cells (about 100 = DMSO control)
In short: (§2)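 Plates were quality-checked by Z'-factor and normalised to vehicle (100) and a positive kill control (0). The underlying assay incubated breast cancer cell lines for 72 h on 384-well plates with compound, then added 2.5 µl CellTiter-Blue for 2 h at 37 °C and read at 560/590 nm. The value is normalised viability at a single listed concentration of the series.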

HDQ-P1 [10] = experiment: as above
In short: as §2

SK-BR-3 = experiment: as above
In short: as §2

CAL-51 [11] = experiment: as above
In short: as §2

MDA-MB-231 [12] = experiment: as above
In short: as §2

CAL-120 = experiment: as above
In short: as §2

Hs578T = experiment: as above
In short: as §2

CAL-148 [13] = experiment: as above
In short: as §2

CAL-85-1 [14] = experiment: as above
In short: as §2

MDA-MB-453 [15] = experiment: as above
In short: as §2

MFM-223 [16] = experiment: as above
In short: as §2

C[C@]1(O)C[C@@H](c2nc(-c3ccc4ccc(-c5ccccc5)nc4c3)c3c(N)nccn32)C1 [Linsitinib]
drug sensitivity score (HCC1143): 0 | drug sensitivity score (MDA-MB-468 [1]): 0 | drug sensitivity score (MDA-MB-436): 14.3 | drug sensitivity score (HDQ-P1 [2]): 0 | drug sensitivity score (CAL-51 [3]): 0 | drug sensitivity score (MDA-MB-231 [4]): 4.69 | drug sensitivity score (CAL-148 [5]): 0 | drug sensitivity score (DU-4475): 0 | drug sensitivity score (CAL-85-1 [6]): 0 | drug sensitivity score (MDA-MB-453 [7]): 0 | drug sensitivity score (BT-549): 0 | drug sensitivity score (BT-474): 0 | drug sensitivity score (MFM-223 [8]): 0 | drug sensitivity score (HCC1937): 0

CC1(C)CNc2cc(NC(=O)c3cccnc3NCc3ccncc3)ccc21 [Motesanib]
normalised viability (MDA-MB-468 [9]; 10 nM): 88.3% | normalised viability (MDA-MB-468 [9]; 1000 nM): 85.3% | normalised viability (MDA-MB-468 [9]; 10000 nM): 88.2% | normalised viability (HDQ-P1 [10]; 3 nM): 76.7% | normalised viability (HDQ-P1 [10]; 30 nM): 95.1% | normalised viability (HDQ-P1 [10]; 100 nM): 86.6% | normalised viability (SK-BR-3; 10 nM): 83.3% | normalised viability (SK-BR-3; 1000 nM): 88.9% | normalised viability (SK-BR-3; 10000 nM): 78.9% | normalised viability (CAL-51 [11]; 3 nM): 109% | normalised viability (CAL-51 [11]; 30 nM): 110% | normalised viability (CAL-51 [11]; 100 nM): 97.2% | normalised viability (MDA-MB-231 [12]; 10 nM): 69.8% | normalised viability (MDA-MB-231 [12]; 1000 nM): 77.3% | normalised viability (MDA-MB-231 [12]; 10000 nM): 72.8% | normalised viability (CAL-120; 10 nM): 74.4% | normalised viability (CAL-120; 1000 nM): 78.3% | normalised viability (CAL-120; 10000 nM): 82.4% | normalised viability (Hs578T; 10 nM): 104% | normalised viability (Hs578T; 1000 nM): 95.5% | normalised viability (Hs578T; 10000 nM): 95.7% | normalised viability (CAL-148 [13]; 3 nM): 94.8% | normalised viability (CAL-148 [13]; 30 nM): 83.7% | normalised viability (CAL-148 [13]; 100 nM): 90.7% | normalised viability (CAL-85-1 [14]; 3 nM): 83.1% | normalised viability (CAL-85-1 [14]; 30 nM): 80.9% | normalised viability (CAL-85-1 [14]; 100 nM): 85.3% | normalised viability (MDA-MB-453 [15]; 3 nM): 96.1% | normalised viability (MDA-MB-453 [15]; 30 nM): 71.3% | normalised viability (MDA-MB-453 [15]; 100 nM): 69.6% | normalised viability (MFM-223 [16]; 10 nM): 80.8% | normalised viability (MFM-223 [16]; 1000 nM): 76.4% | normalised viability (MFM-223 [16]; 10000 nM): 83.2% | drug sensitivity score (HCC1143): 0 | drug sensitivity score (MDA-MB-468 [1]): 0 | drug sensitivity score (MDA-MB-436): 0 | drug sensitivity score (HDQ-P1 [2]): 0 | drug sensitivity score (CAL-51 [3]): 0 | drug sensitivity score (MDA-MB-231 [4]): 0 | drug sensitivity score (CAL-148 [5]): 0 | drug sensitivity score (DU-4475): 0 | drug sensitivity score (CAL-85-1 [6]): 0 | drug sensitivity score (MDA-MB-453 [7]): 0 | drug sensitivity score (BT-549): 0 | drug sensitivity score (BT-474): 0 | drug sensitivity score (MFM-223 [8]): 0 | drug sensitivity score (HCC1937): 0

Cc1ccc([N+](=O)[O-])cc1S(=O)(=O)N(C)/N=C/c1cnc2ccc(Br)cn12 [PIK-75]
drug sensitivity score (HCC1143): 9.38 | drug sensitivity score (MDA-MB-468 [1]): 19.6 | drug sensitivity score (MDA-MB-436): 0 | drug sensitivity score (HDQ-P1 [2]): 11.6 | drug sensitivity score (CAL-51 [3]): 36.9 | drug sensitivity score (MDA-MB-231 [4]): 40 | drug sensitivity score (CAL-148 [5]): 0 | drug sensitivity score (DU-4475): 7.23 | drug sensitivity score (CAL-85-1 [6]): 25.2 | drug sensitivity score (MDA-MB-453 [7]): 7.11 | drug sensitivity score (BT-549): 16.9 | drug sensitivity score (BT-474): 20.3 | drug sensitivity score (MFM-223 [8]): 12.3 | drug sensitivity score (HCC1937): 2.32

COc1cc(F)c(F)c(Nc2ccc(I)cc2F)c1NS(=O)(=O)C1(C[C@H](O)CO)CC1 [Refametinib]
drug sensitivity score (HCC1143): 0 | drug sensitivity score (MDA-MB-468 [1]): 6.47 | drug sensitivity score (MDA-MB-436): 0 | drug sensitivity score (HDQ-P1 [2]): 0 | drug sensitivity score (CAL-51 [3]): 0 | drug sensitivity score (MDA-MB-231 [4]): 16.3 | drug sensitivity score (CAL-148 [5]): 0 | drug sensitivity score (DU-4475): 8.58 | drug sensitivity score (CAL-85-1 [6]): 12.3 | drug sensitivity score (MDA-MB-453 [7]): 0 | drug sensitivity score (BT-549): 0 | drug sensitivity score (BT-474): 0 | drug sensitivity score (MFM-223 [8]): 0 | drug sensitivity score (HCC1937): 0
